Measurements as given in the CATMoS acute toxicity set (Mansouri et al. 2021).

Experiment: GHS categories as the set defines them, by LD50: 1 up to 5, 2 up to 50, 3 up to 300, 4 up to 2000, 5 above 2000 mg/kg
Details: rat; in vivo; po

Row | Compound | GHS category
1 | N#CCCNCCCCCCNCCC#N | 5
2 | CCCCCCC(C(C)=O)C(=O)OCC (stereo not given) | 5
3 | CC(C)C1C(=O)N(c2ccccc2)N(c2ccc(O)cc2)C1=O (stereo not given) | 4
4 | O=C1c2ccccc2C(=O)c2c(O)ccc(O)c21 | 5
5 | CCOC(=O)C(Br)CC (stereo not given) | 4
6 | C[Si](Cl)(Cl)C1CCCCC1 | 5
7 | CC1CC(OC(=O)C(C)Oc2ccc(F)cc2)CC(C)(C)C1 (stereo not given) | 5
8 | CCCCCCCCO | 5
9 | CCN(C(=O)SCc1ccccc1)C(C)C(C)C (stereo not given) | 5
10 | CCCCCCCCCCCC(=O)OCC(C)O (stereo not given) | 5
11 | O=C(O)C1CNC1 | 5
12 | CCCCC1C(=O)N(c2cccc(O)c2)N(c2cccc(O)c2)C1=O | 4
13 | CC(C)c1[nH]c2ccccc2c1C(=O)c1cccnc1 | 5
14 | CCCc1c(Cc2ccc(-c3ccccc3-c3nn[nH]n3)cc2)c(N=[N+]=[N-])nc2ncnn12 | 4
15 | C=CC(C)(CCC=C(C)CC)OC(C)=O (stereo not given) | 5
16 | CCN(C(=O)CCCSc1nnnn1C)C1CCCCC1O (stereo not given) | 4
17 | CCCCCCOc1ccc(-c2ccc(C#N)cc2)cc1 | 5
18 | NC(=O)OC[C@@H]1[C@H](NC(=O)/C(=N\OCC(=O)O)c2csc(N)n2)C(=O)N1S(=O)(=O)O | 5
19 | CCOC(=O)C1CCC(C(=O)OCC)CC1 (stereo not given) | 5
20 | CCCCCCCCCCCC(=O)N(CC)CC | 5
21 | CC1(C)Oc2cc(C(=O)c3ccc(Cl)cc3)ccc2NC1=O | 5
22 | CCCCc1oc2ccc([N+](=O)[O-])cc2c1C(=O)c1ccc(O)cc1 | 5
23 | CCOC(C)OCCc1ccccc1 (stereo not given) | 5

Row | Compound | GHS category
24 | CCC1CCC(=O)O1 (stereo not given) | 5
25 | O=c1[nH]c(=O)[nH]c(=O)[nH]1 | 5
26 | CC(C#N)c1cccc(C(=O)Cl)c1 (stereo not given) | 5
27 | CCn1cc(C(=O)O)c(=O)c2cc(F)c(N3CCNCC3)cc21 | 5
28 | CCCCCCOC(=O)CC | 5
29 | NC(CSCC(=O)O)C(=O)O (stereo not given) | 5
30 | COc1cc2nc(N3CCN(C(=O)C4COc5ccccc5O4)CC3)nc(N)c2cc1OC (stereo not given) | 5
31 | Cc1cc(C(=O)NCCc2ccc(S(=O)(=O)NC(=O)NC3CCCCC3)cc2)no1 | 5
32 | NC[C@H]1O[C@H](O[C@H]2[C@H](O)[C@@H](O[C@H]3O[C@H](CO)[C@@H](O)[C@H](N)[C@H]3O)[C@H](N)C[C@@H]2N)[C@H](N)C[C@@H]1O | 5
33 | CC(C)C[C@H]1C(=O)N2CCC[C@H]2[C@]2(O)O[C@](NC(=O)[C@@H]3C=C4c5cccc6[nH]c(Br)c(c56)C[C@H]4N(C)C3)(C(C)C)C(=O)N12 | 5
34 | CC1(C(O)CO)OC(c2ccc(Cl)cc2)OC2COC(c3ccc(Cl)cc3)OC21 (stereo not given) | 5
35 | CCCCCCCCCCCCCCCC(=O)O[C@@H]1C[C@@H](C(=O)O)N(C(=O)CCCCCCCCCCCCCCC)C1 | 5
36 | CCN(Cc1cccc(S(=O)(=O)O)c1)c1ccc(C(=C2C=CC(=[N+](CC)Cc3cccc(S(=O)(=O)[O-])c3)C=C2)c2ccccc2)cc1 | 5
37 | C[C@@]12CC[C@@H]3[C@H](CC=C4C[C@H](OS(=O)(=O)O)CC[C@]43C)[C@H]1CCC2=O (racemic) | 5
38 | CC(C=O)(CO)CO | 5
39 | CC(C)CC1(C)OCC(CO)O1 (stereo not given) | 5
40 | CCOC(=O)C(=O)Nc1cc(Cl)ncn1 | 4
41 | CCCc1c(Cc2ccc(-c3ccccc3-c3nn[nH]n3)cc2)c(N(CC)CC)nc2ncnn12 | 4
42 | CCOCOC1CCCCCCCCCCC1 | 5
43 | CC1C(C)(C)C2CCc3cncnc3C2C1(C)C (stereo not given) | 4
44 | CC[C@H]1OC(=O)C[C@@H](O)[C@H](C)[C@@H](O[C@@H]2O[C@H](C)[C@@H](O[C@H]3C[C@@](C)(O)[C@@H](O)[C@H](C)O3)[C@H](N(C)C)[C@H]2O)[C@@H](CC=O)C[C@@H](C)C(=O)C=CC(C)=CC1CO[C@@H]1O[C@H](C)[C@@H](O)[C@@H](OC)[C@H]1OC (stereo not given in full) | 5
45 | O=c1[nH]n(-c2cccc(C(F)(F)F)c2)c2ncccc12 | 4
46 | C=CC(=O)OCCCCCC(C)C | 5

Row | Compound | GHS category
47 | CC(O)CSCCCCCCCCC(C)(C)C (stereo not given) | 5
48 | CC1COC(Cn2cncn2)(c2cc3cc(Cl)cc(Cl)c3o2)O1 (stereo not given) | 4
49 | CN(C)C(=O)c1cc(C(=O)N(C)C)c2c(n1)C(=O)C(=O)c1cc(C(=O)N(C)C)[nH]c1-2 | 5
50 | C=COCCCCCCCCCCCCCCCCCC | 5
51 | CC1(C)O[C@@H]2C[C@H]3[C@@H]4CCC5=CC(=O)CC[C@]5(C)[C@@]4(F)[C@@H](O)C[C@]3(C)[C@]2(C(=O)CCl)O1 | 5
52 | C[C@H]1COc2c(N3C[C@@H](N)C4(CCC4)C3)c(F)cc3c(=O)c(C(=O)O)cn1c23 | 5
53 | CCCc1c(Cc2ccc(-c3ccccc3-c3nn[nH]n3)cc2)c(=S)nc2nc[nH]n12 | 4
54 | CCCCCCCCCCCCCCCCCCOC(=O)CCSCCC(=O)OCCCCCCCCCCCCCCCCCC | 5
55 | Nc1cc(Br)c(O)c2c(O)c3c(N)cc(Br)c(O)c3c(O)c12 | 5
56 | Cc1ccc(Nc2ccc(Nc3ccc(C)cc3S(=O)(=O)O)c3c2C(=O)c2c(O)ccc(O)c2C3=O)c(S(=O)(=O)O)c1 | 5
57 | COCOC1CCCCCCCCCCC1 | 5
58 | CC1COCc2cc3c(cc21)C(C)(C)C(C)C3(C)C (stereo not given) | 5
59 | O=Cc1c(O)ccc2ccccc12 | 5
60 | CCC(C)(C)OC(=O)N[C@@H](Cc1c[nH]c2ccccc12)C(=O)N[C@@H](CCSC)C(=O)N[C@@H](CC(=O)O)C(=O)N[C@@H](Cc1ccccc1)C(N)=O | 5
61 | Cc1nc2n(c1/C=N/NC(=O)CN(C)C)CCS2 | 4
62 | O=C(CSCCO)NCCCOc1cccc(CN2CCCCC2)c1 | 5
63 | COc1ccc(C(=O)N2CCN(c3ccc4c(c3)CCC(=O)N4)CC2)cc1OC | 5
64 | COC(=O)c1ccc(C(F)(F)F)nc1S(=O)(=O)NC(=O)Nc1nc(OC)cc(OC)n1 | 5
65 | OB(O)c1cc(F)c(F)c(F)c1 | 4
66 | COC(=O)C(C)CCC(=O)N(C)C (stereo not given) | 5
67 | C=COCCOCCOC(=O)C=C | 4
68 | COC(=O)c1sc(N)c(C#N)c1C | 5
69 | CC(=O)O[C@]1(C(C)=O)CC[C@H]2[C@@H]3C=C(Cl)C4=CC(=O)[C@@H]5C[C@@H]5[C@]4(C)[C@H]3CC[C@@]21C | 5

Row | Compound | GHS category
70 | CS/C(C)=N/O | 4
71 | COC(=O)CCCC(=O)OC | 5
72 | CC1CC(OC(=O)C(C)Oc2ccccc2Cl)CC(C)(C)C1 (stereo not given) | 5
73 | CCCCCCCC(=O)OCCC(C)O (stereo not given) | 2
74 | Clc1ccc2oc(C3(Cn4ccnc4)OCCO3)cc2c1 | 4
75 | NC(N)=N[C@@H](CS)C(=O)O | 5
76 | N#CNC1=NCCS1 | 4
77 | CCCCCCCCCCCCCCCC(=O)NCC(=O)O | 5
78 | CCO[Si](CCCSSCCC[Si](OCC)(OCC)OCC)(OCC)OCC | 5
79 | CC(OC(=O)ON1C(=O)CCC1=O)OC(=O)C(C)C (stereo not given) | 4
80 | C[C@@H]1O[C@@H]1P(=O)(O)O | 5
81 | CCCCCCCCOc1ccc(-c2ccc(C#N)cc2)cc1 | 5
82 | CCCCCCCCCCCCCCCCCC(=O)OC | 5
83 | CC12CCC3c4ccc(OC(=O)c5ccccc5)cc4CCC3C1CCC2OC(=O)COC(=O)CCCc1ccc(NCCCl)cc1 (stereo not given) | 5
84 | CN1C(C(=O)Nc2ccccn2)=C(OC(=O)C(C)(C)C)c2sccc2S1(=O)=O | 2
85 | COCC(=O)O[C@]1(CCN(C)CCCc2nc3ccccc3[nH]2)CCc2cc(F)ccc2[C@@H]1C(C)C | 4
86 | CC(=O)OCCCCCCCCCOC(C)=O | 5
87 | Cc1cccc(C)c1NC(=O)C1CCCCN1C (stereo not given) | 5
88 | Clc1ccc(Oc2cccc(Cl)c2)cc1 | 5
89 | CC(C)=CCC/C(C)=C/C(=O)OCCC(C)C | 5
90 | Cc1cccc2ncc(C(=O)NC3CCCCC3)c(=O)n12 | 3
91 | O=C(NC(=O)c1ccccc1Cl)Nc1ccc(OC(F)(F)F)cc1 | 5
92 | Nc1nc(N)nc(NC(=O)NC(=O)c2ccc(Cl)cc2)n1 | 5

Row | Compound | GHS category
93 | O=C(CC1Sc2ccccc2NC1=O)Nc1cccc(Cl)c1 (stereo not given) | 5
94 | CC(C)(C)C1CCC(OC(=O)Cl)CC1 (stereo not given) | 5
95 | CC(C)CCCCCCCOC(=O)CCCCCCCC(=O)OCCCCCCCC(C)C | 5
96 | ClC1=C(Cl)C2(Cl)C3COCC3C1(Cl)C2(Cl)Cl (stereo not given) | 5
97 | CCOc1ccc(C(C)(C)COCc2cccc(Oc3ccccc3)c2)cc1 | 5
98 | CC(=O)O[C@@H]1C[C@H](C)CC[C@H]1C(C)C | 5
99 | CC(c1ccc(O)cc1)(c1ccc(O)cc1)c1ccc(O)cc1 | 5
100 | C=C[Si](C)(C)O[Si](O[Si](C)(C)C=C)(O[Si](C)(C)C=C)O[Si](C)(C)C=C | 5
101 | CC12CCC3C(CC=C4C=C(N5CCCC5)CCC43C)C1CCC2=O (stereo not given) | 5
102 | NP(N)(=O)Oc1ccccc1 | 4
103 | CCOC(=O)CC1(C)OCCO1 | 5
104 | CCCCCCCCCC(=O)N(C)C | 5
105 | COc1ccc(-c2cc(=O)c3c(OCCO)cc(O[C@@H]4O[C@H](CO[C@@H]5O[C@@H](C)[C@H](O)[C@@H](O)[C@H]5O)[C@@H](O)[C@H](O)[C@H]4O)cc3o2)cc1O | 5
106 | CCN(CCOC(C)OCC(C)C)c1ccc(N=Nc2ccccc2)cc1 (stereo not given) | 4
107 | CN(C(=O)Cl)c1nnc(C(C)(C)C)s1 | 4
108 | O=C(c1ccc(OC2CCOC2)cc1)c1cc(I)ccc1Cl (stereo not given) | 4
109 | CCOC(=O)C1=C(C)NC(CCl)=C(C(=O)OCC)C1c1cccc([N+](=O)[O-])c1 (stereo not given) | 4
110 | CO[C@@]1(NC(=O)Cc2cccs2)C(=O)N2C(C(=O)O)=C(COC(N)=O)CS[C@@H]21 | 5
111 | CC(C)(C)C(=O)OCC(=O)c1ccccc1 | 5
112 | CCN(C(=O)Oc1cccc(NC(=O)OC(C)C)c1)c1ccccc1 | 5
113 | CN1C(C(=O)Nc2ccccn2)=C(OP2(=O)OCCCO2)c2sc(Cl)cc2S1(=O)=O | 2
114 | Nc1ccc(C(=O)c2ccc(Cl)cc2)cc1O | 5
115 | CN(C)C1=NC(=O)C(c2ccccc2)O1 (stereo not given) | 5
